Consider six compounds from ChEMBL document CHEMBL1201862, “PubChem BioAssay data set” (2004).

Where a name gives a salt, the structure may show the parent alone. Active and inactive are the calls of the source.

The term IC50 denotes the concentration at which inhibition is half-maximal. In general, CC50 refers to the concentration that lowers cell viability or growth by half. The term EC50 denotes the concentration needed to bring the measured effect to its halfway point.

Test [1] can be described thus: Jurkat T cell cytotoxicity, dose response, cytotoxicity control for P. falciparum gametocyte viability project, luminescence (AID 1117277).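 Also: potency reflects loss of cellular ATP meaning fewer viable cells.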 Format: functional, cell-based.
Test [2] can be described thus: P. falciparum late gametocyte killing, dose response, luminescence (AID 1117278).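 Also: gametocytes exposed to compound for 24 hours.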 It counts as functional, cell-based.
Test [3] concerns HEK293. As to the kind of experiment: cells. Format: functional, cell-based. The settings on record: Homo sapiens.
Test [4] is described as follows: Vero cell cytotoxicity, dose response, cytotoxicity control for Vif-APOBEC3G degradation inhibitor project, Vero cells (AID 1117358). Format: functional. The settings on record: Human immunodeficiency virus 1, Vero.
Test [5] has as its system HEK293. As to the kind of experiment: NOD2 signaling inhibitors in MDP-stimulated cells, cell-based, uHTS, luminescence (AID 2001). Format: functional. The conditions noted are these: Homo sapiens.
In test [6] the test system is HEK293. As to the kind of experiment: cells. The conditions noted are these: Homo sapiens. Format: functional, cell-based. The source holds these as a separate data set.
Test [7] deals with HEK293. As to the kind of experiment: NOD1 signaling inhibitors, primary screen, cell-based, luminescence, uHTS (AID 1578). Format: functional. The settings on record: Homo sapiens.
The next test concerns the target T1, Aminopeptidase N (Plasmodium falciparum FcB1/Columbia, UniProt O96935).
T1 sequence (O96935 whole entry): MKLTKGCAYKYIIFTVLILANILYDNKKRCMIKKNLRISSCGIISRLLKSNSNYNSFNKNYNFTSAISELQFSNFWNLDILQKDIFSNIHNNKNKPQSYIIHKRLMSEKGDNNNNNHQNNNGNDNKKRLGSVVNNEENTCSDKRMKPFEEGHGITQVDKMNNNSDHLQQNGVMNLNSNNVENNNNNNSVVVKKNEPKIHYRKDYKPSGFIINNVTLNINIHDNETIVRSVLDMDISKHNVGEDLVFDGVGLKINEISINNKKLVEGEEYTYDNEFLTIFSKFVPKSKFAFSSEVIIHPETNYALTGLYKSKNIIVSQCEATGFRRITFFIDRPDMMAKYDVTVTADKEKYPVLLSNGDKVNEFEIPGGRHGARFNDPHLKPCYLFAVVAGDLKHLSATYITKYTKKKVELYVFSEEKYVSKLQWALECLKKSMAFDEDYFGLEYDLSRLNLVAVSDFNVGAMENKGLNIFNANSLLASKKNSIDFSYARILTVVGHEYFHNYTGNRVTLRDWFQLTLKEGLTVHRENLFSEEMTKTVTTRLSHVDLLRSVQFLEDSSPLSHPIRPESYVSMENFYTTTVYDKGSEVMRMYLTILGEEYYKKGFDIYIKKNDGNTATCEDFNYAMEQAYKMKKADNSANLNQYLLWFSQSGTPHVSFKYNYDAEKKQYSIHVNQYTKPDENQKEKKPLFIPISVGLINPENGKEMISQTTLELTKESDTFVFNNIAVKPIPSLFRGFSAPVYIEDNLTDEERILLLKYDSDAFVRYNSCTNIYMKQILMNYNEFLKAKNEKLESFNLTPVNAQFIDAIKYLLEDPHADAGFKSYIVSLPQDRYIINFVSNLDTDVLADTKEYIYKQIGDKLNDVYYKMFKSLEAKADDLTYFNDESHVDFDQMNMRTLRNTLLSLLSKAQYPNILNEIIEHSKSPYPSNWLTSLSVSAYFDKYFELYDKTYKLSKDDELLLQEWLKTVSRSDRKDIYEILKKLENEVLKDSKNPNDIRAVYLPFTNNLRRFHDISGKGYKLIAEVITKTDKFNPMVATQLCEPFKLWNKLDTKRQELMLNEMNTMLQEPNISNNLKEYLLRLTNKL
As to the kind of experiment: P. falciparum M1AAP inhibitors, biochemical, fluorogenic H-Leu-NHMec substrate, 1536-well (AID 1445). Also on record: species or system Plasmodium falciparum 3D7, 3D7.

For a further test, the target named is Albumin (Bos taurus, UniProt P02769). As to the kind of experiment: Counterscreen for inhibitors of T-cell receptor (TCR)-CD3 interaction: Fluorescence-based biochemical high throughput dose response assay to identify inhibitors of T-cell receptor (TCR)-CD3 interaction using a TAMRA-labeled BSA probe. It counts as functional. For orientation: Counterscreens check selectivity or assay interference.
Sequence of Albumin (P02769 whole entry): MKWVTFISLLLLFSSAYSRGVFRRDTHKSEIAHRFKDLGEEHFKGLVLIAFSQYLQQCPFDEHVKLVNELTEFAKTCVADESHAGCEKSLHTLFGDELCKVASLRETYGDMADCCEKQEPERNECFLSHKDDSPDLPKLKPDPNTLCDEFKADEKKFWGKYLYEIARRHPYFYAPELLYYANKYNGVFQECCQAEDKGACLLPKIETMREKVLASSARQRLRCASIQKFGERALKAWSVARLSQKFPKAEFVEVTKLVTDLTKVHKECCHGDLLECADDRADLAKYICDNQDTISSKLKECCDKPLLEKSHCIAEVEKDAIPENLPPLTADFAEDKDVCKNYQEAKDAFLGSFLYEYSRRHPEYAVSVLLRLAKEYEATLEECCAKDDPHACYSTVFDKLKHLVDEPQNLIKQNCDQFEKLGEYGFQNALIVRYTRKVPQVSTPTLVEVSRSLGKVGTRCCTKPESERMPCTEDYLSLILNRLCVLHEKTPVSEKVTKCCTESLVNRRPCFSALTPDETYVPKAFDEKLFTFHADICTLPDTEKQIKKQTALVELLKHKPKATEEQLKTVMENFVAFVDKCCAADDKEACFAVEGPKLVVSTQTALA

For test [8], the target named is T2, RNA-binding protein pos-1 (Caenorhabditis elegans, UniProt G5EF15).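 Also: purified POS-1 fused to maltose binding protein made in E. coli; potency of compounds blocking POS-1 binding to fluorescent RNA.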
T2 sequence (G5EF15 whole entry): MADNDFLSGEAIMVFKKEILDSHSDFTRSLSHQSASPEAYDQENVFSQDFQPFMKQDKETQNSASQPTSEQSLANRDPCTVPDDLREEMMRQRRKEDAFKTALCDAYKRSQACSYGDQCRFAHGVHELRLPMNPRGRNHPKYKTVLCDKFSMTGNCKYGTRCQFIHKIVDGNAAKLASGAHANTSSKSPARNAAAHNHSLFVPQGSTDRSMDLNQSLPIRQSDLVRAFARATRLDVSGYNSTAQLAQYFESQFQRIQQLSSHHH
As to the kind of experiment: inhibitors of POS-1/mex-3 RNA binding, dose response, biochemical, fluorescence polarization (AID 1964). (In fluorescence polarisation assays a small probe gives low polarisation when free and higher when bound to something large.)

Test [9] deals with RNA-editing ligase 1, mitochondrial (Trypanosoma brucei brucei, UniProt P86926). As to the kind of experiment: TbREL1 ligase inhibitors, dose response, biochemical, fluorescence, Trypanosoma brucei (AID 1117295). It counts as functional.
Sequence of RNA-editing ligase 1, mitochondrial (P86926 whole entry): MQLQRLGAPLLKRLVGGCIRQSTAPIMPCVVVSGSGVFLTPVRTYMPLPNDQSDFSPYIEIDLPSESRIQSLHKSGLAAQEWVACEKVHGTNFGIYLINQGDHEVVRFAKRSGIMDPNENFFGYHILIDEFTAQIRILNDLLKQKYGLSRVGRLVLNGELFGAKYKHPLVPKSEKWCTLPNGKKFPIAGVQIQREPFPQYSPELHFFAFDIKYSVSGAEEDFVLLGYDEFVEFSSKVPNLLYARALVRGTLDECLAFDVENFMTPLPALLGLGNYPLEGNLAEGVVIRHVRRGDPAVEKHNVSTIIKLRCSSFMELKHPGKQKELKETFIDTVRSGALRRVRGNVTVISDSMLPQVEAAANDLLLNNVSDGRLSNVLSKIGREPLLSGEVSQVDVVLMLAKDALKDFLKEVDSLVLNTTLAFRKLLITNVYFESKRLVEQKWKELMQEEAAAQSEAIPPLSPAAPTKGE
The target in test [10] is T3, Zinc finger protein mex-5 (Caenorhabditis elegans, UniProt Q9XUB2).
T3 sequence (Q9XUB2 whole entry): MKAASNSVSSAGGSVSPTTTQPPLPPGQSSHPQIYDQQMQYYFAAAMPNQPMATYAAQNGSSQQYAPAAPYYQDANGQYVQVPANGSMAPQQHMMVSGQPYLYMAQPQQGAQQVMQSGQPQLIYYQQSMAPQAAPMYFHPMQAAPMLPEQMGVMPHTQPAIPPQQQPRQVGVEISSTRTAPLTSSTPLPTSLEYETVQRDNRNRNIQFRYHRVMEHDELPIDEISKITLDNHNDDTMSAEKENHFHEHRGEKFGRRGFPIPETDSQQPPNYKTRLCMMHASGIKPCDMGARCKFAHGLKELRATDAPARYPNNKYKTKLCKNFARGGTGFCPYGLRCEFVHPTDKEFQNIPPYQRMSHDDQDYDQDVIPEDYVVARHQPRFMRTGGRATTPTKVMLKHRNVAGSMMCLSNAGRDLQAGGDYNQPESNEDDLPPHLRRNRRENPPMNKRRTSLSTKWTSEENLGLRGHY
As to the kind of experiment: MEX-5/TCR-2 RNA interaction inhibitors, dose response, biochemical, C. elegans, fluorescence polarization (AID 1960).

Test [11] deals with T4, Low molecular weight phosphotyrosine protein phosphatase (Homo sapiens, UniProt P24666).
T4 sequence (P24666 whole entry): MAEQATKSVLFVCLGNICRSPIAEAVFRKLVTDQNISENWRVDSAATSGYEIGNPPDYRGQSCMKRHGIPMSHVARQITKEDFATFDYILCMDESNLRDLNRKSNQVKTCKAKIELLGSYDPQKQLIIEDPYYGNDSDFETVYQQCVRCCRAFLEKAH
As to the kind of experiment: LMPTP phosphatase inhibitors, dose response, biochemical, OMFP substrate, fluorescence intensity, set 2 (AID 743307). It counts as functional.

In test [12] the target is T4, Low molecular weight phosphotyrosine protein phosphatase. As to the kind of experiment: LMPTP phosphatase inhibitors, colorimetric pNPP readout, dose response, orthogonal assay, biochemical, absorbance, pNPP substrate, LMPTP-A isoform, set 2 (AID 743308). It counts as functional.
The target of test [13] is G-protein coupled receptor 183 (Homo sapiens, UniProt P32249). As to the kind of experiment: SAR confirmation of small molecule antagonists of the EBI2 receptor via a luminescent beta-arrestin assa. It counts as functional.
Sequence of G-protein coupled receptor 183 (P32249 whole entry): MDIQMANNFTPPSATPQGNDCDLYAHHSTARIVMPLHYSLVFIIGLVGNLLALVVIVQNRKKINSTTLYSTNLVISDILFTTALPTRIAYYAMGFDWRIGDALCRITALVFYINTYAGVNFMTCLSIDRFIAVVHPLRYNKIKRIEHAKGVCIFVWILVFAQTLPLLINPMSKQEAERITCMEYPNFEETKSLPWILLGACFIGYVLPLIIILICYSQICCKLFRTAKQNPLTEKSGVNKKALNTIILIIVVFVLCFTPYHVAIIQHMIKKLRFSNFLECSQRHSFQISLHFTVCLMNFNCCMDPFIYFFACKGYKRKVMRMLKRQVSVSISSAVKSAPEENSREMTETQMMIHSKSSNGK
Test [14] in a line: Concentration-dependent survival of SW480 colon cancer line, luminescence detection with CellTiter-Glo, half-maximal inhibitory concentration (AID 1117338). It counts as functional.
Test [15] can be described thus: Dose-response inhibition of insulin secretion in a rat insulinoma line at 5 mM glucose (AID 1117331). The conditions noted are these: INS-1E. It counts as functional, cell-based.
Another test in a line: cells. It counts as functional, cell-based. The settings on record: INS-1E.
Test [16] can be described thus: HeLa 4N DNA content increase, dose response, cell-based, IC50 (AID 1117351). Format: functional.
A short description of test [17]: RKO cell viability reduction, dose response, CellTiter-Glo luminescence (AID 1117322). It counts as functional. On the technique in general: ATP-based viability assays read luminescence as a measure of living cells.
The nature of test [18]: HeLa 2N DNA content increase, dose response, cell-based, IC50 (AID 1117349). Format: functional.
Test [19] in a line: HCT116 cell viability decrease, GSK3B pretreatment – CellTiter-Glo, IC50, dose response (AID 1117339). It counts as functional. The settings on record: HCT-116.
Test [20] is described as follows: SNU-C1 cell viability reduction, dose response, CellTiter-Glo luminescence (AID 1117323). It counts as functional, cell-based.

For the compound `CC(C)Cc1nnc(NC(=O)CSc2nc(O)c(-c3ccccc3)c(O)n2)s1`, the IC50 is > 83.3 µM (inactive) in [1] and > 109 µM (inactive) in test [2].
With `COc1ccc(NC(=O)c2cccc(S(=O)(=O)Nc3ccc(Br)cc3)c2)cn1`, the IC50 is 17.3 µM (active) in the test with HEK293 [3], 8.65 µM (active) in the test with HEK293 [5] and > 20 µM (inactive) in the test on HEK293 [6]. For the same compound, the CC50 in test [4] is 22.8 µM (active). The EC50 with HEK293 [7] is 11.2 µM (active).
As for `Cc1n[nH]c(S/C(=C/c2ccc(-c3ccc(C(=O)O)cc3)o2)C(=O)O)n1`, the IC50 at Aminopeptidase N was 18.5 µM (active); on Albumin, > 94.2 µM (inactive); in [9], 77.9 µM (inactive). Further, the figures for the EC50 in test [8] and in test [10] were 4.1 µM (active) and 1.45 µM (active), respectively.
For `CCN(CC)c1nc(-c2ccccc2)nc2ccccc12`, the figures for the IC50 in test [11] and in test [12] were 53.1 µM (inactive) and > 80 µM (inactive), respectively.
With `O=C(/C=C/c1ccc(F)cc1)N1CCN(S(=O)(=O)CCc2ccccc2)CC1`, the IC50 in test [13] is 0.00327 µM (active).
With `CCN(CC)CCCC(C)Nc1c2ccc(Cl)cc2nc2ccc(OC)cc12` (stereo not drawn) [QUINACRINE HYDROCHLORIDE], the 50% inhibitory concentration (IC50) is 3.6 µM (active) in [14]; 4.07 µM (active) in test [15]; > 33.3 µM (inactive) in the test “cells”; > 10 µM (inactive) in [16]; 3.42 µM (active) in test [17]; 2.16 µM (active) in test [18]. The IC50 in test [19] is 4.48 µM (active); in test [20] it was 3.84 µM (active).
